From US20040019092A1, “Non-peptide somatostatin receptor ligands” (priority 2001, published 2004)
Several values for one entry are separate records, joined by “and”; a condition that tells them apart may be missing. Equal values may be shown once.

Key:
[1] = system: SRIF receptors ([^125I]SRIF-28 binding sites); assay: Ex-vivo [^125I]Tyr^26-SRIF-28 binding in rat cortex and hippocampus after s.c. dosing; design: species or system Wistar rats; conditions: 60 min
Method: Ex-vivo binding was used to determine to whether compound 14 (a potent sst2 receptor selective hydantoin) when applied peripherally to rates can cross the blood brain barrier, as robust behavioral models are not fully characterized and blood-brain penetration models are not routinely available. […] The rats were given saline or drug sub-cutaneously at the indicated dose (in saline) and killed 60 minutes after application with CO2. The brain was removed and placed on ice; the cerebral cortex and hippocampus were dissected out and weighted. […] The homogenate was stored on ice and used immediately or deep frozen (-70° C.) until used (1-3 days). […] The tables list the effects of compound 14 on cortex (Table 6) and hippocampus (Table 7) binding at the doses and times indicated (see also FIGS. 3 and 4). TB=total binding, NS=non specific binding, SB=specific binding. The values are indicated in cpm for individual animals, mean, n=number of animals, sem=standard error of the mean; percent=% specific binding remaining following treatment compared to controls.

[2] = Urinary excretion and metabolite patterns in blood and urine; format: in vivo, rat; conditions: for Urinary excretion of parent drug: underestimates (urine lost)
Method: Metabolite patters were determined in blood extracts and in urine. Blood was pooled from the 3 intravenously dosed rats of the pharmacokinetic study and from 3 additional rats treated in the same way. Urine was obtained from the animals of the pharmacokinetic study.
Between 0.3 and 0.6 mL of pooled diluted blood were spiked with 10-20 μg unlabeled compound 42-ch, extracted with 10 mL of methanol (HPLC grade, Rathburn) by sonication and centrifuged. The pellet was extracted once more in the same way. The two supernatants were combined and evaporated under reduced pressure at 35° C. on a rotary evaporator. The residue was transferred into a smaller vial by means of methanol and water, evaporated under a stream of nitrogen and taken up in 80 μl methanol and 320 μl water or in 120 μl methanol and 280 μl water by sonication. The suspension was centrifuged and a 300 μl aliquot of the supernatant was injected onto the HPLC column. The extraction yield of radioactivity was only 45±12% (mean ISD).
To urine samples, acetonitrile (˜5% v/v), TFA (to obtain a pH of ˜3) and unlabeled compound 42-ch (˜4 μg per volume analyzed) were added. The mixtures were centrifuged and 1-2 mL of supernatant were injected onto the HPLC column.
The chromatography was performed using HP 1090 liquid chromatograph (Hewlett-Packard). The radioactivity of the column eluate was measured by liquid scintillation counting either off-line or on-line using a Berthold LB 507A radioactivity monitor. The samples were chromatographed on a reversed-phase column (Nucleosil 100, C18AB, 250×4.6 mm, 5 μm particle size, Macherey-Nagel) protected by a corresponding 8×4 mm precolumn. The column temperature was 40° C. The components were eluted with a gradient of 0.02% v/v trifluoroacetic acid (TFA, Pierce) in water (mobile phase A, pH 2.8) versus acetonitrile (HPLC grade S, Rathburn; mobile phase B). The proportion of solvent B was kept at 5% up to 5 minutes after injection and was then increased in linear segments to 40% at 110 minutes and 100% at 120 minutes where it was kept for another 10 minutes. The total flow rate was 1 mL/min. The unlabeled parent drug, added as a retention time marker, was monitored by UV detection at 216 nm.

[3] = Capillary depletion of brain hemispheres; format: in vivo, rat; conditions: n=3 rats
Method: The brain extraction ratio E was calculated from E=BUI*0.62, where 0.62 represents the brain extraction ratio of tritiated water (Pardridge, W. M. et al. “Absence of albumin receptor on brain capillaries in vivo or in vitro” Am. J. Physiol, 1985, 249, E264-E267). In order to quantify a possible sequestration of [^14C]-42 by the brain microvasculature, the brain hemispheres of 3 rats were submitted to capillary depletion (Triguero, D, et al. “Capillary depletion method for quantifying the blood-brain barrier transcytosis of circulating peptides and plasma proteins” J. Neurochem, 1990, 54, 1882-1888). The ^14C-radioactivity observed in the pellet (capillary bed/endothelial cells and pericytes) was compared to the ^14C-radioactivity observed in the supernatant (transcytosis space/interstitial fluid).

[4] = male, Wistar, rat, in vivo, iv
Method: The pharmacokinetic study was performed with 3 male Wistar rats (BRL) weighing 300-330 g with a one week interval between administration phases. The day before the first dosing, the rats underwent surgical implantation of an in-dwelling cannula; the right femoral artery was cannulated and the tube was passed subcutaneously to emerge at the back of the neck. The animals were individually housed in metabolism cages and fasted overnight before administrations.
The dose solution was administered (5 mL/kg) by gastric incubation.
The dose solution was administered (2 mL/kg) into the surgically exposed femoral vein.
During the study, 18 blood samples (100-500 μL) were taken, up to 48 hours post-dose from the cannulated femoral artery representing a total volume of 5.7 mL blood. The loss of blood was compensated by infusion of 6 times 1 mL of blood from donor rats. Urine samples were collected up to 48 hours post-dose. For the analysis of the in vivo brain distribution, 3 male rats were intravenously dosed (1 mg/kg or 72 μCi/kg) as described above. At 0.5 hours after administration, the rats were sacrificed; blood and brain were collected.
Determination of radioactivity in blood, plasma, brain homogenates and in urine, was carried out by direct liquid scintillation counting. Prior to radiometric determination, blood and tissue were solubilized in Solutron (Kontron Instruments, Zurich, Switzerland). After adding 10 mL of scintillation cocktail (Lumasafe, Lumac, Landgraaf, the Netherlands), all samples were counted in Tri-carb liquid scintillation analyzer (Canberra Packard, IL).
The procedure involved the addition of 5 μg of non-radiolabeled 42 to each blood sample as an internal standard. After adding 1 mL of acetonitrile, the sample was mixed with a Polytron mixer and centrifuged (234000×g, 30 minutes) in a Beckman centrifuge (Model TL100). The supernatant was evaporated in a vacuum centrifuge (Univapo 150H, Zivy). The residue was reconstituted in 250 μL of mobile phase-water (3:1 v/v) and centrifuged (3000×g, 60 s). The supernatant (200 μL) was injected onto HPLC. […] Compound 42 was separated from potential metabolites and endogenous compounds on a RP18 endcapped Superspher column, 125 mm×4 mm (Merck) at 45° C. The mobile phase consisted of 0.1% tetramethylammonium hydroxide—acetonitrile (500:500 v/v). The flow rate was 1 mL/min; the effluent was monitored at 260 nm. […] The limit of quantification was 0.3 ng/mL.
The peeling method was applied to describe the data by a compartment model approach, characterized by the following equation: C═C1*e^λ1−t+C2*e^λ2−t. The initial estimates of C1, λ1, C2, λ2 were taken to generate the best fit using the computer software ELSFIT. The estimates for half-lives were calculated as T1/2λi=ln2/λi.

[5] = cortex, SRIF-28 +MgCl-2, 0.3 mg/kg s.c.
[6] = cortex, SRIF-28 +MgCl-2, 1 mg/kg s.c.
[7] = cortex, SRIF-28 +MgCl-2, 3 mg/kg s.c.
[8] = cortex, SRIF-28 +MgCl-2, 10 mg/kg s.c.
[9] = hippocampus, SRIF-28 +MgCl-2, 0.3 mg/kg s.c.
[10] = hippocampus, SRIF-28 +MgCl-2, 1 mg/kg s.c.
[11] = hippocampus, SRIF-28 +MgCl-2, 3 mg/kg s.c.
[12] = hippocampus, SRIF-28 +MgCl-2, 10 mg/kg s.c.

For Cc1cccc2c(CC3C(=O)N(CCCCCN)C(=O)N3S(=O)(=O)c3ccc(Oc4ccc(O)cc4)c(C#N)c3)c[nH]c12 (stereo not shown) [Compound 14], the “NS non specific binding, individual animals” value [1, 5] was 3058 cpm and 2970 cpm and 3027 cpm, the “NS non specific binding, mean” value [1, 5] was 3018 cpm and the “SB specific binding, individual animals” value [1, 5] was 24318 cpm and 23238 cpm and 23669 cpm. The “SB specific binding, mean” value [1, 5] was 23742 cpm, the “TB total binding, individual animals” value [1, 5] was 27376 cpm and 26208 cpm and 26696 cpm and the “TB total binding, mean” value [1, 5] was 26760 cpm. The “percent specific binding remaining compared to controls” value (“percent specific binding remaining” below) [1, 5] was 89%, the “NS non specific binding, individual animals” value [1, 6] was 2915 cpm and 3036 cpm and 3191 cpm and the “NS non specific binding, mean” value [1, 6] was 3047 cpm. For the same compound, the “SB specific binding, individual animals” value [1, 6] was 21767 cpm and 23930 cpm and 23905 cpm, the “SB specific binding, mean” value [1, 6] was 23201 cpm and the “TB total binding, individual animals” value [1, 6] was 24682 cpm and 26966 cpm and 27096 cpm. The “TB total binding, mean” value [1, 6] was 26248 cpm, the “percent specific binding remaining” value [1, 6] was 95% and the “NS non specific binding, individual animals” value [1, 7] was 2980 cpm and 3016 cpm and 3116 cpm. The “NS non specific binding, mean” value [1, 7] was 3037 cpm, the “SB specific binding, individual animals” value [1, 7] was 22191 cpm and 21992 cpm and 22578 cpm and the “SB specific binding, mean” value [1, 7] was 22254 cpm. For the same compound, the “TB total binding, individual animals” value [1, 7] was 25171 cpm and 25008 cpm and 25694 cpm, the “TB total binding, mean” value [1, 7] was 25291 cpm and the “percent specific binding remaining” value [1, 7] was 91%. The “NS non specific binding, individual animals” value [1, 8] was 3070 cpm and 3015 cpm and 3305 cpm, the “NS non specific binding, mean” value [1, 8] was 3130 cpm and the “SB specific binding, individual animals” value [1, 8] was 22730 cpm and 21395 cpm and 23605 cpm. The “SB specific binding, mean” value [1, 8] was 22577 cpm, the “TB total binding, individual animals” value [1, 8] was 25800 cpm and 24410 cpm and 26910 cpm and the “TB total binding, mean” value [1, 8] was 25707 cpm. For the same compound, the “percent specific binding remaining” value [1, 8] was 93%, the “NS non specific binding, individual animals” value [1, 9] was 2936 cpm and 2874 cpm and 2753 cpm and the “NS non specific binding, mean” value [1, 9] was 2854 cpm. For the same compound, the “SB specific binding, individual animals” value [1, 9] was 18219 cpm and 18124 cpm and 19319 cpm, the “SB specific binding, mean” value [1, 9] was 18554 cpm and the “TB total binding, individual animals” value [1, 9] was 21155 cpm and 20998 cpm and 22072 cpm. For the same compound, the “TB total binding, mean” value [1, 9] was 21408 cpm, the “percent specific binding remaining” value [1, 9] was 112% and the “NS non specific binding, individual animals” value [1, 10] was 2754 cpm and 2528 cpm and 2621 cpm. For the same compound, the “NS non specific binding, mean” value [1, 10] was 2634 cpm, the “SB specific binding, individual animals” value [1, 10] was 17055 cpm and 18516 cpm and 18145 cpm and the “SB specific binding, mean” value [1, 10] was 17905 cpm. For the same compound, the “TB total binding, individual animals” value [1, 10] was 19809 cpm and 21044 cpm and 20766 cpm, the “TB total binding, mean” value [1, 10] was 20540 cpm and the “percent specific binding remaining” value [1, 10] was 108%. For the same compound, the “NS non specific binding, individual animals” value [1, 11] was 2532 cpm and 2841 cpm and 2786 cpm, the “NS non specific binding, mean” value [1, 11] was 2720 cpm and the “SB specific binding, individual animals” value [1, 11] was 15758 cpm and 14336 cpm and 15162 cpm. The “SB specific binding, mean” value [1, 11] was 15085 cpm, the “TB total binding, individual animals” value [1, 11] was 18290 cpm and 17117 cpm and 17948 cpm and the “TB total binding, mean” value [1, 11] was 17805 cpm. The “percent specific binding remaining” value [1, 11] was 91%, the “NS non specific binding, individual animals” value [1, 12] was 2587 cpm and 2850 cpm and 2711 cpm and the “NS non specific binding, mean” value [1, 12] was 2716 cpm. The “SB specific binding, individual animals” value [1, 12] was 15809 cpm and 14387 cpm and 13715 cpm, the “SB specific binding, mean” value [1, 12] was 14637 cpm and the “TB total binding, individual animals” value [1, 12] was 18398 cpm and 17237 cpm and 18426 cpm. The “TB total binding, mean” value [1, 12] was 17353 cpm and the “percent specific binding remaining” value [1, 12] was 88%.
In the case of N#Cc1cc(S(=O)(=O)N2C(=O)N(CCCCCN)C(=O)C2Cc2c[nH]c3ccccc23)ccc1Oc1ccc(N)cc1 (stereo not shown) [Compound 42], the “Urinary excretion of parent drug” value ([2]; 0-48 hours after single intravenous 1 mg/kg [^14C]-42, individual animals, 1 mg/kg) is reported as 0.96 % of dose and 1.98 % of dose and 1.97 % of dose, the “Urinary excretion of parent drug” value ([2]; 0-48 hours after single intravenous 1 mg/kg [^14C]-42, mean of 3 animals) is reported as 1.64 % of dose and the “Urinary excretion of parent drug” value ([2]; 0-48 hours after single oral 10 mg/kg [^14C]-42, individual animals, 10 mg/kg) is reported as 0.001 % of dose and 0.053 % of dose and 0.114 % of dose. For the same compound, the “Urinary excretion of parent drug” value ([2]; 0-48 hours after single oral 10 mg/kg [^14C]-42, mean of 3 animals) was 0.056 % of dose, the “drug-related material in blood” value ([2]; rat blood extracts after intravenous dosing) was “mainly of unchanged drug” and the “fraction taken up by capillaries, of the brain penetration” value [3] was 5%. For the same compound, the “AUC ratio parent drug/radioactivity” value [4] was 0.7 and the “f2 (fraction of dose eliminated within λ2)” value [4] was 67%.
